Measurements taken from paper PMC7391726, “Fatty acid mimetic PBI-4547 restores metabolic homeostasis via GPR84 in mice with non-alcoholic fatty liver disease” (Scientific Reports, 2020).

What was measured:
[1] = target: T1, PPARδ (Homo sapiens, UniProt Q03181); assay: Cell-based GAL4 transactivation assay in HEK293 cells, PPARδ LBD; conditions: compared to the control agonist GW0742
T1 construct: PPARδ (S139–Y440); expressed in transfected cells; host or cells: HEK293
T1 sequence (Q03181 139-441 limits assumed): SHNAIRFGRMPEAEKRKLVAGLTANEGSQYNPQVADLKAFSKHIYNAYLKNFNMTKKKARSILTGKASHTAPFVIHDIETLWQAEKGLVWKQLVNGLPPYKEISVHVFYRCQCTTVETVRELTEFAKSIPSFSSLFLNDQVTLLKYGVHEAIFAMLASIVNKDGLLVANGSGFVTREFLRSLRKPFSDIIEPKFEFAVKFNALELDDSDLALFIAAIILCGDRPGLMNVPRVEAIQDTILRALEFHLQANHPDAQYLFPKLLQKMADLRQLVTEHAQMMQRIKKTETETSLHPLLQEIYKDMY
Source text: To determine the transcriptional activity of PBI-4547, a cell-based GAL4 transactivation assay in HEK293 cells transfected with either PPARα, PPARδ, or PPARγ LBD was used. […] However, PBI-4547 only partially activated PPARγ transcriptional activity, with a relative maximal efficacy of 38% of the control agonist rosiglitazone.
Generation of the Gαi2, Gαq, and GPR40/β-arrestin-2 BRET biosensors have been described previously. A plasmid encoding the human GPR120-L (long isoform) cDNA was obtained from R&D Systems. GPR120-S (short isoform) was generated by replacing the BglII-BsgI fragment from GPR120-L by a gBlock gene fragment (Integrated DNA Technologies, Coralville, IA) lacking the DNA sequence corresponding to the extra 16 amino acids found in the third intracellular loop of the long form. The GPR120-GFP10 construct was generated by inserting PCR-amplified GPR120-S (without its stop codon) in place of GPR40 in the GPR40-GFP10 plasmid. […]
HEK293 cells were co-transfected with pGL4.35[luc2P/9XGAL4UAS/Hygro] and GAL4-PPAR-Rluc plasmids, and after 24 h of incubation were treated with compounds for 24 h. Luciferase activity was determined with the Dual Glo luciferase assay (Promega). Firefly luminescence was normalized to the constitutively expressed Renilla luminescence, and results expressed as fold induction of vehicle control.

[2] = tested on: CCl4 mouse; assay: Carbon tetrachloride (CCl4)-induced liver fibrosis; assay type: in vivo
Source text: Since fibrosis contributes directly to the progression from NAFLD to NASH, we next evaluated the effect of PBI-4547 pro-fibrotic gene expression. […] Pro-inflammatory genes were not modulated by treatment with PBI-4547. […] As liver fibrosis was relatively mild in HFD-fed mice, we performed separate studies to evaluate the antifibrotic effect of PBI-4547, in rodent models of carbon tetrachloride (CCl4)- and bile duct ligation (BDL)-induced liver fibrosis.

[3] = tested on: HepG2 hepatocytes; assay: 14C-palmitate β-oxidation rate in HepG2 hepatocytes; assay type: cell-based
Protocol: Moreover, hepatic expression of several genes involved in glucose metabolism including Pklr (pyruvate kinase L/R), G6pc (glucose-6-phosphatase, catalytic) and Slc2a2 (Glut2) was normalized by PBI-4547 (Fig. 4B). […] To test this hypothesis, mitochondrial respiration in HepG2 hepatocytes was measured (Fig. 4C). […] However, it did decrease maximal respiration and ATP production, in agreement with the metabolomics results.
Figure 4 Effects of PBI-4547 on glucose and FA metabolism in liver. (A) Relative gene expression levels of glucose and FA-related metabolism in liver from STD, HFD and HFD + PBI-4547 mice. Data are presented as geometric mean ± SEM (n ≥ 6 per group, one-way ANOVA with Dunnett’s multicomparison test vs HFD group). (B) 1H-NMR metabolic profiling in liver tissues. (C) Oxygen Consumption Rate (OCR) and Extracellular Acidifcation Rate (ECAR) in HepG2 hepatocytes. Measurements of basal respiration, maximal respiration, ATP production and proton leak in HepG2 hepatocytes treated or not with PBI-4547. (D) Oxidation rate of ^14C-palmitate in HepG2 hepatocytes treated or not with PBI-4547. Data are presented as mean ± SEM (n = 3, Student t test Ctrl vs PBI-4547). See also Fig. S2.

PPARδ transcriptional activity [1]: very weak
Structure (SMILES): CCCCCc1cc(CCCCC)cc(CC(=O)[O-])c1.[Na+] [PBI-4547, 2-[3,5-dipentylphenyl]acetate sodium salt]
liver collagen deposition [2]: significantly decreased
oxidation of 14C-palmitate (β-oxidation rate) [3]: dose-dependently increased
